Test results as given in patent US12595281B2, “Indodicarbocyanine phosphoramidites with bathochromically shifted absorption and emission, and tunable hydrophobicity” (The Government of the United States of America, as …, priority 2022, dated 2026).

Assay: Methanol content to elute DNA-dye sequences from reverse phase HPLC column
Format: physicochemical
Settings: average over sequences HJA-D and HJAcomp containing the dye
Procedure: Desalted oligo solutions were then analyzed by liquid chromatography-mass spectrometry (LCMS, see Characterization below for more detail) to confirm the presence of correct sequence in the crude product. Samples containing the confirmed dye-labeled DNA sequences were then pooled and purified by preparatory scale reverse phase HPLC (2707 Autosampler, 2545 Quaternary Gradient Module, 2998 Photodiode Array Detector, and Fraction Collector III, Waters, Inc, Milford, MA) using an XBridge OST C18 OBD 19×50 mm column (Part No. 186008962, Waters, Inc, Milford, MA) with a gradient of increasing methanol in 0.1 M TEAA (aq.). For Cy5-hex, Cy5-Peg and Cy5-tBu containing sequences, LC fractions were concentrated to dryness directly from the 0.1 M TEAA buffer/methanol solution. […] Dried LC fractions were reconstituted in small volumes of water (Optima Grade), to keep concentration sufficiently high (25-50 μM) to visualize and separate low percentage impurities on LCMS. Purified fractions were combined, concentrated, then re-analyzed via LCMS for a final purity assessment.
Due to the overall poor solubility of the parent cyanine dye derivatives in water, the octanol-water partition coefficient (log P) could not be determined by the traditional “shake flask” method. In lieu of this approach, modelling software developed by Advanced Chemistry Development, Inc. was used to predict the partition coefficient and solubility in water (log S0), as shown in Table 2. As an additional means of comparison with direct relevance to the final intended utility of these oligos, the average concentration of methanol required to elute the DNA sequences containing the given dye from the reverse phase HPLC column was determined (the greater the methanol content required to elute, the more hydrophobic the dye). The DNA-dye sequences were utilized for this instead of the free dyes because they are capable of eluting at lower methanol content, but the hydrophobic character of the dye still dominates the elution profile. […] This is in close agreement with the relative “stickiness” of the DNA-dye sequences towards […] stationary phase.

In order of falling “Av. % MeOH for DNA-dye elution” value:
1. CCCCCCOc1ccc2c(c1)C(C)(C)C(=CC=CC=CC1=[N+](CCCO)c3ccc(OCCCCCC)cc3C1(C)C)N2CCCOC(c1ccccc1)(c1ccccc1)c1ccc(OC)cc1.[I-] [Cy5-hex, 1-(3-hydroxypropyl)-1′-(3-monomethoxytritylpropyl)-5,5′-bis(n-hexyloxy)-3,3,3′,3′-tetramethyl-dicarboindocyanine iodide]  51%
2. COc1ccc(C(OCCCN2C(=CC=CC=CC3=[N+](CCCO)c4ccc(C(C)(C)C)cc4C3(C)C)C(C)(C)c3cc(C(C)(C)C)ccc32)(c2ccccc2)c2ccccc2)cc1.[I-] [Cy5-tBu, 1-(3-hydroxypropyl)-1′-(3-monomethoxytritylpropyl)-5,5′-bis(tert-butyl)-3,3,3′,3′-tetramethyl-dicarboindocyanine iodide]  41%
3. COCCOCCOCCOc1ccc2c(c1)C(C)(C)C(=CC=CC=CC1=[N+](CCCO)c3ccc(OCCOCCOCCOC)cc3C1(C)C)N2CCCOC(c1ccccc1)(c1ccccc1)c1ccc(OC)cc1.[I-] [Cy5-Peg, 1-(3-hydroxypropyl)-1′-(3-monomethoxytritylpropyl)-5,5′-bis{2-[2-(2-methoxyethoxy)ethoxy]ethoxy}-3,3,3′,3′-tetramethyl-dicarboindocyanine iodide]  31.5%
4. COc1ccc(C(OCCCN2C(=CC=CC=CC3=[N+](CCCO)c4ccc(Cl)cc4C3(C)C)C(C)(C)c3cc(Cl)ccc32)(c2ccccc2)c2ccccc2)cc1.[I-] [Cy5-Cl, 5,5′-dichloro-1-(3-hydroxypropyl)-1′-(3-monomethoxytritylpropyl)-tetramethyl-dicarboindocyanine iodide]  30.5%
